Assay results taken from patent US11053204B2, “Pyrimidinyloxy benzene derivatives as herbicides” (FMC Corporation, priority 2015, dated 2021).

Columns and labels:
Assay type in all cases: in vivo
[1] = system: pigweed (Amaranthus retroflexus); assay: Test C preemergence, plant response rating; details: Preemergence
[2] = system: barnyardgrass (Echinochloa crus-galli); assay: Test C postemergence, plant response rating; details: Echinochloa crus-galli, post-emergence
How it was run: (§1)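 Visual injury score, 0 = no effect, 100 = complete control, assigned against untreated controls after 13 to 15 d in the greenhouse. Compounds were applied in a surfactant-containing non-phytotoxic solvent mix, preemergence to seeded loam/sand or silt loam soil, or postemergence to 1- to 4-leaf plants (2 to 18 cm).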

[3] = system: blackgrass (Alopecurus myosuroides); assay: Test C postemergence, plant response rating; details: Alopecurus myosuroides, post-emergence
How it was run: as §1

corn (Zea mays) = assay: Test C postemergence, plant response rating; details: Zea mays, post-emergence
How it was run: as §1

[4] = system: crabgrass, large (large crabgrass, Digitaria sanguinalis); assay: Test C postemergence, plant response rating; details: Digitaria sanguinalis, post-emergence
How it was run: as §1

[5] = system: foxtail, giant (giant foxtail, Setaria faberii); assay: Test C postemergence, plant response rating; details: Setaria faberi, post-emergence
How it was run: as §1

[6] = system: galium (catchweed bedstraw, Galium aparine); assay: Test C postemergence, plant response rating; details: Galium, post-emergence
How it was run: as §1

[7] = system: lambsquarters (Chenopodium album); assay: Test C postemergence, plant response rating; details: Chenopodium album, post-emergence
How it was run: as §1

[8] = system: nutsedge, yellow (yellow nutsedge, Cyperus esculentus); assay: Test C postemergence, plant response rating; details: Cyperus, post-emergence
How it was run: as §1

[9] = system: oat, wild (wild oat Avena fatua); assay: Test C postemergence, plant response rating; details: Avena fatua, post-emergence
How it was run: as §1

[10] = system: oilseed rape (Brassica napus); assay: Test C postemergence, plant response rating; details: Brassica napus, post-emergence
How it was run: as §1

[11] = system: ragweed (common ragweed, Ambrosia elatior); assay: Test C postemergence, plant response rating; details: Ambrosia artemisiifolia, post-emergence
How it was run: as §1

[12] = system: ryegrass, Italian (Italian ryegrass, Lolium multiflorum); assay: Test C postemergence, plant response rating; details: Lolium multiflorum, post-emergence
How it was run: as §1

soybean (Glycine max) = assay: Test C postemergence, plant response rating; details: Glycine max, post-emergence
How it was run: as §1

[13] = system: velvetleaf (Abutilon theophrasti); assay: Test C postemergence, plant response rating; details: Abutilon theophrasti, post-emergence
How it was run: as §1

[14] = system: wheat (winter wheat, Triticum aestivum); assay: Test C postemergence, plant response rating; details: Triticum aestivum, post-emergence
How it was run: as §1

[15] = 62 g ai/ha, scale 0 to 100 (0 no effect, 100 complete control)
[16] = 125 g ai/ha, scale 0 to 100 (0 no effect, 100 complete control)

SMILES: O=C(OCCC(F)(F)F)c1c(Cl)cccc1Oc1ncc(Cl)cn1 [Compound 15, 3,3,3-trifluoropropyl 2-chloro-6-[(5-chloro-2-pyrimidinyl)oxy]benzoate]
- Plant response rating, Pigweed ([1]; 125 g ai/ha, scale of 0 to 100): 100
- Plant response rating, Pigweed ([1]; 16 g ai/ha, scale 0 to 100): 98
- Plant response rating, Pigweed ([1]; 31 g ai/ha, scale 0 to 100): 100
- Plant response rating, Pigweed ([1]; 62 g ai/ha, scale 0 to 100): 100
- pest or weed control at 16 g/ha ([2]; 16 g ai/ha, scale 0 to 100): 20%
- pest or weed control at 31 g/ha ([2]; 31 g ai/ha, scale 0 to 100): 15%
- pest or weed control at 62 g/ha [2, 15]: 20%
- pest or weed control at 125 g/ha [2, 16]: 20%
- pest or weed control at 16 g/ha ([3]; 16 g ai/ha, scale 0 to 100): 0%
- pest or weed control at 31 g/ha ([3]; 31 g ai/ha, scale 0 to 100): 5%
- pest or weed control at 62 g/ha [3, 15]: 10%
- pest or weed control at 125 g/ha [3, 16]: 10%
- Corn plant response rating (crop injury, 0 = no effect, 100 = complete kill) at 16 g/ha (corn (Zea mays); 16 g ai/ha, scale 0 to 100): 15%
- Corn plant response rating (crop injury, 0 = no effect, 100 = complete kill) at 31 g/ha (corn (Zea mays); 31 g ai/ha, scale 0 to 100): 10%
- plant injury at 62 g/ha (corn (Zea mays); [15]): 20%
- plant injury at 125 g/ha (corn (Zea mays); [16]): 20%
- pest or weed control at 16 g/ha ([4]; 16 g ai/ha, scale 0 to 100): 30%
- pest or weed control at 31 g/ha ([4]; 31 g ai/ha, scale 0 to 100): 20%
- pest or weed control at 62 g/ha [4, 15]: 25%
- pest or weed control at 125 g/ha [4, 16]: 25%
- pest or weed control at 16 g/ha ([5]; 16 g ai/ha, scale 0 to 100): 25%
- pest or weed control at 31 g/ha ([5]; 31 g ai/ha, scale 0 to 100): 30%
- pest or weed control at 62 g/ha [5, 15]: 20%
- pest or weed control at 125 g/ha [5, 16]: 35%
- pest or weed control at 16 g/ha ([6]; 16 g ai/ha, scale 0 to 100): 70%
- pest or weed control at 31 g/ha ([6]; 31 g ai/ha, scale 0 to 100): 60%
- pest or weed control at 62 g/ha [6, 15]: 95%
- pest or weed control at 125 g/ha [6, 16]: 95%
- pest or weed control at 16 g/ha ([7]; 16 g ai/ha, scale 0 to 100): 70%
- pest or weed control at 31 g/ha ([7]; 31 g ai/ha, scale 0 to 100): 75%
- pest or weed control at 62 g/ha [7, 15]: 75%
- pest or weed control at 125 g/ha [7, 16]: 95%
- pest or weed control at 16 g/ha ([8]; 16 g ai/ha, scale 0 to 100): 0%
- pest or weed control at 31 g/ha ([8]; 31 g ai/ha, scale 0 to 100): 0%
- pest or weed control at 62 g/ha [8, 15]: 5%
- pest or weed control at 125 g/ha [8, 16]: 20%
- pest or weed control at 16 g/ha ([9]; 16 g ai/ha, scale 0 to 100): 5%
- pest or weed control at 31 g/ha ([9]; 31 g ai/ha, scale 0 to 100): 5%
- pest or weed control at 62 g/ha [9, 15]: 5%
- pest or weed control at 125 g/ha [9, 16]: 10%
- plant injury at 16 g/ha ([10]; 16 g ai/ha, scale 0 to 100): 45%
- plant injury at 31 g/ha ([10]; 31 g ai/ha, scale 0 to 100): 95%
- plant injury at 62 g/ha [10, 15]: 100%
- plant injury at 125 g/ha [10, 16]: 0%
- pest or weed control at 16 g/ha ([11]; 16 g ai/ha, scale 0 to 100): 30%
- pest or weed control at 31 g/ha ([11]; 31 g ai/ha, scale 0 to 100): 40%
- pest or weed control at 62 g/ha [11, 15]: 50%
- pest or weed control at 125 g/ha [11, 16]: 65%
- pest or weed control at 16 g/ha ([12]; 16 g ai/ha, scale 0 to 100): 0%
- pest or weed control at 31 g/ha ([12]; 31 g ai/ha, scale 0 to 100): 5%
- pest or weed control at 62 g/ha [12, 15]: 10%
- pest or weed control at 125 g/ha [12, 16]: 5%
- plant injury at 16 g/ha (soybean (Glycine max); 16 g ai/ha, scale 0 to 100): 45%
- plant injury at 31 g/ha (soybean (Glycine max); 31 g ai/ha, scale 0 to 100): 45%
- plant injury at 62 g/ha (soybean (Glycine max); [15]): 80%
- plant injury at 125 g/ha (soybean (Glycine max); [16]): 90%
- pest or weed control at 16 g/ha ([13]; 16 g ai/ha, scale 0 to 100): 50%
- pest or weed control at 31 g/ha ([13]; 31 g ai/ha, scale 0 to 100): 50%
- pest or weed control at 62 g/ha ([13]; 62 g ai/ha, scale 0 to 100 (0 no effect, 100 complete control), read-out: Velvetleaf plant response rating): 60%
- pest or weed control at 125 g/ha [13, 16]: 85%
- plant injury at 16 g/ha ([14]; 16 g ai/ha, scale 0 to 100): 0%
- plant injury at 31 g/ha ([14]; 31 g ai/ha, scale 0 to 100): 0%
- plant injury at 62 g/ha ([14]; 62 g ai/ha, scale 0 to 100 (0 no effect, 100 complete control), read-out: Wheat plant response rating): 0%
- plant injury at 125 g/ha [14, 16]: 0%
